Source: patent publication US20240239761A1, “BICYCLIC PHENOL COMPOUNDS AND USE THEREOF” (MEDSHINE DISCOVERY INC., priority 2021, published 2024)
Like-named read-outs stand apart in the source and are kept apart here.

Experiments:
[1] = target: THRα (Homo sapiens (Human), UniProt P10827); test: GeneBLAzer TR alpha-UAS-bla HEK 293T cell-based agonist assay; details: TR alpha-UAS-bla HEK 293T cells; for EC50: 22 hours incubation; for THRα maximum agnostic capability: T3 as positive control
Protocol: When a compound enters the cell and binds to THR, the receptor binds to the DNA binding region to form a complete GAL4 dimer that utilizes the GAL4-UAS system to activate β-lactamase expression, which then decomposes the substrate CCF4-AM (coumarin).
The LiveBLAzer™M-FRET B/G (CCF4-AM) substrate was added to the cell plate and incubated for 2 hours at room temperature, shielded from light. […] By detecting the ratio of the two fluorescences (460 nm/530 nm), the EC50 of the compound was calculated using Graphpad Prism software. […] The Z-factor (greater than 0.5) is calculated to monitor the stability of each experiment.

[2] = target: THRβ (Homo sapiens, UniProt P10828); test: GeneBLAzer TR beta-UAS-bla HEK 293T cell-based agonist assay; details: for THRß maximum agnostic capability: TR beta-UAS-bla HEK 293T cells, T3 as positive control
Sequence of THRβ (P10828 whole entry, looked up, the tested form may be a part): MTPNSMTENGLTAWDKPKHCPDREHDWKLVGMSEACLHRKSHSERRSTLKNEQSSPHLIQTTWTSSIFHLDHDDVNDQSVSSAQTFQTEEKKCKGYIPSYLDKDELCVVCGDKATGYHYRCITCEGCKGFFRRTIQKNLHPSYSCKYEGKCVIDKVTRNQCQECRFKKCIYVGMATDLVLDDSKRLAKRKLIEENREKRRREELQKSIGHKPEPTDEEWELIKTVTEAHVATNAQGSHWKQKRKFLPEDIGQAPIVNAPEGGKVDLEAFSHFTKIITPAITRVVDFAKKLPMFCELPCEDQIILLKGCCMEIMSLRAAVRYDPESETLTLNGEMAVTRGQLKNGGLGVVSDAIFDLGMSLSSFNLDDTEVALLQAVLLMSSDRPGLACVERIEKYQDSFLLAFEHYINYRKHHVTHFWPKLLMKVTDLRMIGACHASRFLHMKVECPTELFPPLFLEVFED
Description: The present experiment employs the GeneBLAzer® TR alpha/beta-UAS-bla HEK 293T Cell-based Assay developed by ThermoFisher. The underlying principle is that TR alpha-UAS-bla HEK 293T Cell and TR beta-UAS-bla HEK 293T Cell express B-lactamase, a reporter gene controlled by the upstream UAS sequence. When a compound enters the cell and binds to THR, the receptor binds to the DNA binding region to form a complete GAL4 dimer that utilizes the GAL4-UAS system to activate β-lactamase expression, which then decomposes the substrate CCF4-AM (coumarin). The resulting product, when excited at 409 nm, emits fluorescence at a wavelength of 447 nm. If β-lactamase is not expressed, the product generates fluorescence at a wavelength of 520 nm through FRET under excitation at 409 nm. By detecting the ratio of the two fluorescences (447 nm/520 nm), the binding status of the compound to the protein can be determined, thus allowing the calculation of the EC50 of the compound.
The ECHO liquid handling workstation was used to transfer the compound to a 384-well plate, with 10 gradient concentrations for each compound, 3-fold dilution, and duplicate wells. 1.5×10^4 cells (TR beta-UAS-bla HEK 293T Cell) or 1.0×10^4 cells (TR alpha-UAS-bla HEK 293T Cell) were seeded onto the 384-well plate. HEK 293T-TR beta cells were incubated for 16 hours in a 37° C. incubator, and HEK 293T-TR alpha cells were incubated for 22 hours. The LiveBLAzer™M-FRET B/G (CCF4-AM) substrate was added to the cell plate and incubated for 2 hours at room temperature, shielded from light. The Flexstation 3 instrument was utilized to detect the fluorescence values with the wavelength of 460 nm/530 nm emitted by the product under the excitation at 409 nm. By detecting the ratio of the two fluorescences (460 nm/530 nm), the EC50 of the compound was calculated using Graphpad Prism software. […] The Z-factor (greater than 0.5) is calculated to monitor the stability of each experiment.

[3] = target: CYP1A2 (Homo sapiens (Human), UniProt P05177); type: in vitro ADME; details: microsomes
Sequence of CYP1A2 (P05177 whole entry): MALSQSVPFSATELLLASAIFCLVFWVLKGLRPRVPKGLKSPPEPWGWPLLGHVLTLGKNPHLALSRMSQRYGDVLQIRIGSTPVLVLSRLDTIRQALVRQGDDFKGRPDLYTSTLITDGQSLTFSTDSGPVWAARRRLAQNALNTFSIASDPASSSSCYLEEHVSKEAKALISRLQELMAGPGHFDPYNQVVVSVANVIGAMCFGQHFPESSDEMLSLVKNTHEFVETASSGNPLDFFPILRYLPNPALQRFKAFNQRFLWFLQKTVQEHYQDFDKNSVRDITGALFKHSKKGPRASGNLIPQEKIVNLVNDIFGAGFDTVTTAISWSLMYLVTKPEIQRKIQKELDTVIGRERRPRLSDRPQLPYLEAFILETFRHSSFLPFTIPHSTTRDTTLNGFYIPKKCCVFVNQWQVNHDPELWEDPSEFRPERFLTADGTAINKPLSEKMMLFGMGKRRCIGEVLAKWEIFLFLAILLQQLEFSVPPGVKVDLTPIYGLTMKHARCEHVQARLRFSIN
Protocol: (§1) To determine the inhibitory effect of the test compound WX001 on the activity of human liver microsomal cytochrome P450 isoenzymes (CYP1A2, CYP2C9, CYP2C19, CYP2D6, and CYP3A4). First, the test compound (10.0 mM) was diluted to prepare a working solution (100×the final concentration) with a concentration of 1.00 mM. Simultaneously, working solutions were respectively prepared for positive inhibitors of the P450 isoenzymes (CYP1A2, CYP2C9, CYP2C19, CYP2D6, CYP3A4 (with midazolam as a probe substrate), and CYP3A4 (with testosterone as a probe substrate)) and specific probe substrates thereof. Human liver microsomes, stored in a refrigerator at a temperature lower than −60° C., were thawed on ice, and once fully dissolved, were diluted with PB to prepare a working solution of a specific concentration (0.127 mg/mL). 20.0 μL of probe substrate was added to the reaction plate (20.0 μL of PB was added to the Blank wells), followed by the addition of 158 μL of human liver microsomal working solution to the reaction plate. The reaction plate was then placed on ice for later use. Then, 2.00 μL of the test compound (N=1) and specific inhibitors (N=2) were added to the corresponding wells. […] Lastly, the plate was sealed, shaken to ensure the content was thoroughly mixed, and analyzed by LC/MS/MS.

[4] = target: CYP2C9 (Homo sapiens (Human), UniProt P11712); test: Inhibition of human liver microsomal cytochrome P450 isoenzyme CYP2C9; type: in vitro ADME; details: human liver microsomes
Sequence of CYP2C9 (P11712 whole entry): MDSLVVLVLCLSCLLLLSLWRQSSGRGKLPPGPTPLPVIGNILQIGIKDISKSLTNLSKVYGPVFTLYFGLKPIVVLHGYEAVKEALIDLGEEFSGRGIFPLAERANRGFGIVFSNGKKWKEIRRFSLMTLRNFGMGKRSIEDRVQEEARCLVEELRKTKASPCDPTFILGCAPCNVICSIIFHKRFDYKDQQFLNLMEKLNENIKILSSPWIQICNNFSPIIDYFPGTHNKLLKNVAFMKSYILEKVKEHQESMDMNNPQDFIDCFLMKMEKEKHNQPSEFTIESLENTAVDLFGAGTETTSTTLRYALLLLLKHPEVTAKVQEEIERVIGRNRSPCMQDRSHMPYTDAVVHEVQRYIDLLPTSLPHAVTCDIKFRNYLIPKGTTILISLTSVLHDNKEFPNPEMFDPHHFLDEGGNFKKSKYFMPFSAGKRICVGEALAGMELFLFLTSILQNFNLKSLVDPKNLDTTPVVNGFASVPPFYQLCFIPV
Protocol: as §1

[5] = target: CYP2C19 (Homo sapiens (Human), UniProt P33261); test: Inhibition of human liver microsomal cytochrome P450 isoenzyme CYP2C19; type: in vitro ADME; details: human liver microsomes
Sequence of CYP2C19 (P33261 whole entry): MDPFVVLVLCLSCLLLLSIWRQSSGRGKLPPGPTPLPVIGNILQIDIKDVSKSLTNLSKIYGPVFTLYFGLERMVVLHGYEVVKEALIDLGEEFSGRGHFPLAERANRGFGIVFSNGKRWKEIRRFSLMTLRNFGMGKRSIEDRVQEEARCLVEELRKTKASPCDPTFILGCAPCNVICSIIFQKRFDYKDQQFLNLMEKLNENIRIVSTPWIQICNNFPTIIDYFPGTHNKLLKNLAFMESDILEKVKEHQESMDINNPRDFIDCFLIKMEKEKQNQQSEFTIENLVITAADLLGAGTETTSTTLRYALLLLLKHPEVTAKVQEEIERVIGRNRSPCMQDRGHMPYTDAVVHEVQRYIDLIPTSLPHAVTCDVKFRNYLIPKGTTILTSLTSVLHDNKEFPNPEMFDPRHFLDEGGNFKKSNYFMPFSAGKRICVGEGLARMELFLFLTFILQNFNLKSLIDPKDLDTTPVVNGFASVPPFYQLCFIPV
Protocol: as §1

[6] = target: CYP2D6 (Homo sapiens (Human), UniProt P10635); test: Inhibition of human liver microsomal cytochrome P450 isoenzyme CYP2D6; type: in vitro ADME; details: human liver microsomes
Sequence of CYP2D6 (P10635 whole entry): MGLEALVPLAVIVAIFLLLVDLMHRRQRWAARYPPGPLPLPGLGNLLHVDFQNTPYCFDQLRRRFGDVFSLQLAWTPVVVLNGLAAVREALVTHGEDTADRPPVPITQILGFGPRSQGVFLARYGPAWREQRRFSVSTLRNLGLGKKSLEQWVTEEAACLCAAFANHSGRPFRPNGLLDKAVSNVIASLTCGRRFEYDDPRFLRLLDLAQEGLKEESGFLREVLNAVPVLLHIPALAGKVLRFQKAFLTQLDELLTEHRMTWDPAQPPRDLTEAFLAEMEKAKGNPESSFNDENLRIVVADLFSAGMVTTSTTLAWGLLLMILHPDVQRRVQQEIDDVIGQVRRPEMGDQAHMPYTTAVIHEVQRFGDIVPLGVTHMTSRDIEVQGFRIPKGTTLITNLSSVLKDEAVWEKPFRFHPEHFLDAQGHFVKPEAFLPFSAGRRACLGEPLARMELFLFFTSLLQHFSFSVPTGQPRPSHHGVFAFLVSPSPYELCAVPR
Protocol: as §1

[7] = target: CYP3A4 (Homo sapiens (Human), UniProt P08684); test: Inhibition of human liver microsomal cytochrome P450 isoenzyme CYP3A4; type: in vitro ADME; details: human liver microsomes
Sequence of CYP3A4 (P08684 whole entry): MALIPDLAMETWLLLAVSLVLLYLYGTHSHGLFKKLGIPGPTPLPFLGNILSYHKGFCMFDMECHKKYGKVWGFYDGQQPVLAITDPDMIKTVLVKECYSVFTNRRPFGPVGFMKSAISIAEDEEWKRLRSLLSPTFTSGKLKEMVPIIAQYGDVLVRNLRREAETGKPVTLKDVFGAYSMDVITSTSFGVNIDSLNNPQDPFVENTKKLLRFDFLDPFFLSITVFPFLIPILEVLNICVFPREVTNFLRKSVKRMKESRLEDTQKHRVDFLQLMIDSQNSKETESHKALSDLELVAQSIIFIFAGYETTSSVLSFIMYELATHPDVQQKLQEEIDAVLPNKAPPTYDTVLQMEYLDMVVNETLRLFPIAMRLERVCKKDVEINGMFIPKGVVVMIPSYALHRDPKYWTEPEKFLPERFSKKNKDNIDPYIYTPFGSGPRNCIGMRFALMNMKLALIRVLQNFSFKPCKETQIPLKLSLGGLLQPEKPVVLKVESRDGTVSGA
Protocol: as §1

[8] = Pharmacokinetic study of oral and intravenous administration in rats; type: in vivo, rat; details: male SD rats; for half-life: read-out: Half-life T1/2 (converted)
Protocol: Pharmacokinetic study of oral and intravenous administration of WX001 in rats
Male SD rats were selected, and given the test compound as detailed in Table 3.
Whole blood was collected for a certain period of time and prepared into plasma. The drug concentration was analyzed by the LC-MS/MS method, and the pharmacokinetic parameters were calculated using Phoenix WinNonlin software (Pharsight, USA).

[9] = rat, plasma, 30 mg/kg, oral, 30 mpk

Sequence of THRα (P10827 other isoform, or with tags, fused parts or gaps isoform P10827-2): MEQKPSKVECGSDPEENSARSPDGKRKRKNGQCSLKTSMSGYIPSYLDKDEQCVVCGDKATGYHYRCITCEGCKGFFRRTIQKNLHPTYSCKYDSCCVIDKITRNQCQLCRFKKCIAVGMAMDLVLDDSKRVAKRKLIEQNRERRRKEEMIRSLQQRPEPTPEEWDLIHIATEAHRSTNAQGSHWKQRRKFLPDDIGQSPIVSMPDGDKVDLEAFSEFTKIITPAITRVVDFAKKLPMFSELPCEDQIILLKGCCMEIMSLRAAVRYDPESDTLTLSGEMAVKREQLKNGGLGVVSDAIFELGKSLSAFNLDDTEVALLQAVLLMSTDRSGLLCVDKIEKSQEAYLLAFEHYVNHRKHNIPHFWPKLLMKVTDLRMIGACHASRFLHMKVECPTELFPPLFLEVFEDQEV

Row | Structure (SMILES) | EC50 [1] [nM] | THRα maximum agnostic capability [1] [%] | EC50 [2] [nM] | THRß maximum agnostic capability [2] [%] | inhibitory effect on CYP1A2 (in words) [3] | IC50 [4] [nM] | inhibition against CYP2C9 (in words) [4] | IC50 [5] [nM] | inhibitory effect on CYP2C19 (in words) [5] | IC50 [6] [nM] | inhibitory effect on CYP2D6 (in words) [6] | inhibitory effect on CYP3A4 (in words) [7] | IC50 ([7]; midazolam as probe substrate) [nM] | Area under the plasma concentration-time curve/Dosage DNAUC0-last ([8]; intravenous, 3 mpk) [nM. h/mpk] | Area under the plasma concentration-time curve/Dosage DNAUC0-last ([8]; oral, 30 mpk) [nM. h/mpk] | Vd ([8]; rat, plasma, 3 mg/kg, intravenous, 3 mpk, read-out: Apparent volume of distribution Vdss) [L/kg] | clearance ([8]; rat, plasma, 3 mg/kg, intravenous, 3 mpk, read-out: Clearance CL) [mL/min/kg] | half-life ([8]; rat, plasma, 3 mg/kg, intravenous, 3 mpk) [h] | bioavailability [8, 9] [%] | half-life [8, 9] [h]
1 | Cc1cc(NC(=O)c2noc(=O)[nH]2)cc(C)c1Cc1ccc(O)c2c1CCCC2 [WX001] | 122 | 24 | 39.4 | 103 | no inhibitory effects | 3270 | moderate inhibition | 5090 | no inhibitory effects | 41600 | no inhibitory effects | no inhibitory effects | 25400 | 5343 | 1939 | 0.411 | 7.93 | 1.66 | 36 | 1.6
2 | Cc1cc(NC(=O)c2noc(=O)[nH]2)cc(C)c1Cc1ccc(O)c(Cc2ccccc2)c1 [WX002] | 1000 | 101 | 85.5 | 99 | – | – | – | – | – | – | – | – | – | – | – | – | – | – | – | –
3 | Cc1cc(NC(=O)c2noc(=O)[nH]2)cc(C)c1Cc1cc(I)c(O)c2c1CCCC2 [WX005] | 155 | 85 | 57.8 | 96 | – | – | – | – | – | – | – | – | – | – | – | – | – | – | – | –
4 | Cc1cc(NC(=O)c2noc(=O)[nH]2)cc(C)c1Cc1cc(F)c(O)c2c1CCCC2 [WX006] | 435 | 86 | 105 | 90 | – | – | – | – | – | – | – | – | – | – | – | – | – | – | – | –
